Paper PMC11938014, “Development and Application of Small Molecule–Peptide Conjugates as Cathepsin K-Specific Covalent Irreversible Inhibitors in Human Osteoclast and Lung Cancer” (JACS Au, 2025)
Where two headings read alike, the source gives them in different places.

Tests used:
Assay in all cases: Recombinant cathepsin inhibition, gel-based competition with GB123 probe
Type in all cases: biochemical
[1] = target: T1, Recombinant human cathepsin B (Homo sapiens, UniProt P07858)
T1 construct: made in house
Procedure: (§1) In-gel fluorescence analysis was used to detect the residual activity of the cathepsins by applying pan-cathepsin probe GB123 to detect the stable enzyme–probe complex. This approach is used for testing inhibition and selectivity.[37],[41]
(§2) Recombinant human cathepsin L (0.5 μM), cathepsin B (0.5 μM), cathepsin K (0.5 μM), and cathepsin S (0.5 μM) were pretreated with different concentrations of inhibitors (GD compounds, odanacatib) for 1 h in reaction buffer (50 mM acetate, 2 mM dithiothreitol (DTT), and 5 mM MgCl2, pH 5.5) at 37 °C. GB123 (1 μM) was added and incubated with samples for 60 min at 37 °C.[37],[41] The reaction was stopped by the addition of sample buffer 4× (40% glycerol, 0.2 M Tris/HCl pH 6.8, 20% β-mercaptoethanol, 12% SDS, and 0.4 mg/mL bromophenol blue). Samples were then boiled, separated on a 12.5% SDS gel, and scanned for fluorescence by a Typhoon scanner FLA 9500 at excitation and emission wavelengths of 635 and 670 nm for GB123.
(§3) graphs were generated in GraphPad Prism software.

[2] = target: T2, Recombinant human cathepsin K (Homo sapiens, UniProt P43235); settings: for loss of potency compared to GD20: diastereomers of GD20 with D amino acids
T2 construct: made in house
T2 sequence (P43235 115-329): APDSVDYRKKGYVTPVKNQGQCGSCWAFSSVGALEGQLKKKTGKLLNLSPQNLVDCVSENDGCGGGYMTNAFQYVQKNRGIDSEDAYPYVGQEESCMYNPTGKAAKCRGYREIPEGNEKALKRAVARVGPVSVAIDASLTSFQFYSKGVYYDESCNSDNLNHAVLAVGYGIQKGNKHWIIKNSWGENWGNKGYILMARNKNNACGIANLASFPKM
Procedure: as §1, §2, §3

[3] = target: T3, Recombinant human cathepsin L (Homo sapiens, UniProt P07711)
T3 construct: made in house
T3 sequence (P07711 114-333): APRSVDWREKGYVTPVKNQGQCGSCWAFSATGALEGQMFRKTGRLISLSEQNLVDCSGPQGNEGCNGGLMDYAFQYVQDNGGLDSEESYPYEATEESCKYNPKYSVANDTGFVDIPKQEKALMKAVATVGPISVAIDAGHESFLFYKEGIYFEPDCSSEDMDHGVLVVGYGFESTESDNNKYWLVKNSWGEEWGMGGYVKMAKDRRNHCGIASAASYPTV
Procedure: as §1, §2, §3

[4] = Table S2, three independent competition gel-based experiments, read-out: CTSB (IC50)
[5] = Table S2, three independent competition gel-based experiments, read-out: CTSK (IC50)
[6] = Table S2, three independent competition gel-based experiments, read-out: CTSL (IC50)

| SMILES | IC50 [1, 4] | IC50 [2, 5] | IC50 ([3]; Figure 1, gel-based GB123 competition, read-out: Activity [μM] CTSL (IC50)) | IC50 [3, 6] | loss of potency compared to GD20 [2] | IC50 ([1]; Figure 1, gel-based GB123 competition, read-out: Activity [μM] CTSB (IC50)) | IC50 ([2]; Figure 1, gel-based GB123 competition, read-out: Activity [μM] CTSK (IC50)) |
| --- | --- | --- | --- | --- | --- | --- | --- |
| NCCCC[C@H](NC(=O)[C@@H]1CCCN1C(=O)CNC(=O)OCc1ccccc1)C(=O)CSc1c(F)c(F)cc(F)c1F [GD15] | > 5 µM | 5.5 ± 1 µM | > 5 µM | 2 ± 0.15 µM | – | – | – |
| CC(C)C[C@H](NC(=O)OCC1c2ccccc2-c2ccccc21)C(=O)N1CCC[C@H]1C(=O)OCC(=O)CNC(=O)[C@@H](CC(C)C)N[C@H](c1ccc(-c2ccc(S(C)(=O)=O)cc2)cc1)C(F)(F)F [GD40] | – | 3.5 ± 0.9 µM | – | – | 4–9 times | – | – |
| Cc1cccc(C)c1C(=O)OCC(=O)CNC(=O)[C@H](CC(C)(C)F)N[C@@H](c1ccc(-c2ccc(NC(=O)OC(C)(C)C)cc2)cc1)C(F)(F)F [GD6] | 1.7 ± 0.35 µM | 1.6 ± 0.35 µM | – | > 5 µM | – | – | – |
| NCCCC[C@H](NC(=O)[C@H](Cc1ccccc1)NC(=O)OCc1ccccc1)C(=O)CSc1c(F)c(F)cc(F)c1F [GD10] | 0.66 ± 0.02 µM | 0.65 ± 0.01 µM | – | 0.19 ± 0.1 µM | – | – | – |
| CC(C)C[C@H](NC(=O)OCC1c2ccccc2-c2ccccc21)C(=O)N1CCC[C@H]1C(=O)OCC(=O)CNC(=O)[C@@H](CC(C)C)N[C@@H](c1ccc(-c2ccc(S(C)(=O)=O)cc2)cc1)C(F)(F)F [GD39] | – | 3.9 ± 0.7 µM | – | – | 4–9 times | – | – |
| Cc1cccc(C)c1C(=O)OCC(=O)[C@H](CCCCN)NC(=O)[C@H](CC(C)C)NC(=O)CNC(=O)OCc1ccccc1 [GD12] | 1 ± 0.13 µM | 0.8 ± 0.1 µM | – | 1.6 ± 0.22 µM | – | – | – |
| CC(C)C[C@H](N[C@@H](c1ccc(-c2ccc(S(C)(=O)=O)cc2)cc1)C(F)(F)F)C(=O)NCC(=O)COc1c(F)c(F)cc(F)c1F [GD8] | 2.2 ± 0.35 µM | 0.68 ± 0.08 µM | – | 3.6 ± 0.04 µM | – | – | – |
| CC(C)C[C@H](N[C@@H](c1ccc(-c2ccc(S(C)(=O)=O)cc2)cc1)C(F)(F)F)C(=O)NCC(=O)COC(=O)CNC(=O)OCC1c2ccccc2-c2ccccc21 [GD27] | > 5 µM | 1 ± 0.07 µM | – | > 5 µM | – | – | – |
| CC(C)C[C@H](N[C@H](c1ccc(-c2ccc(S(C)(=O)=O)cc2)cc1)C(F)(F)F)C(=O)NCC(=O)COC(=O)[C@@H]1CCCN1C(=O)[C@H](CC(C)C)NC(=O)OCC1c2ccccc2-c2ccccc21 [GD35] | – | 3.5 ± 0.5 µM | – | – | 4–9 times | – | – |
| C#CCNC(=O)[C@H](CC(C)C)N[C@@H](c1ccc(-c2ccc(S(=O)(=O)NC(=O)OC(C)(C)C)cc2)cc1)C(F)(F)F [GD33] | > 20 µM | > 20 µM | – | 4.4 ± 0.8 µM | – | – | – |
| Cc1cccc(C)c1C(=O)OCC(=O)[C@H](CCCCN)NC(=O)[C@H](Cc1ccccc1)NC(=O)OCc1ccccc1 [GB111-NH2, reference compound] | 0.4 ± 0.06 µM | 4.4 ± 0.9 µM | – | 0.25 ± 0.04 µM | – | – | – |
| Cc1cccc(C)c1C(=O)OCC(=O)CNC(=O)[C@H](CC(C)C)N[C@@H](c1ccc(-c2ccc(S(C)(=O)=O)cc2)cc1)C(F)(F)F [GD7] | 3.6 ± 0.03 µM | 0.66 ± 0.01 µM | – | > 5 µM | – | – | – |
| CC(C)C[C@H](NC(=O)OCC1c2ccccc2-c2ccccc21)C(=O)N1CCC[C@H]1C(=O)OCC(=O)CNC(=O)[C@H](CCCCNC(=O)OC(C)(C)C)N[C@@H](c1ccc(-c2ccc(S(C)(=O)=O)cc2)cc1)C(F)(F)F [GD29] | > 5 µM | > 5 µM | – | 1.6 ± 0.5 µM | – | – | – |
| CC(C)C[C@H](N[C@@H](c1ccc(-c2ccc(S(=O)(=O)NC(=O)OC(C)(C)C)cc2)cc1)C(F)(F)F)C(=O)NCC(=O)COC(=O)[C@@H]1CCCN1C(=O)[C@H](CC(C)C)NC(=O)OCC1c2ccccc2-c2ccccc21 [GD31] | 0.24 ± 0.1 µM | 0.9 ± 0.1 µM | – | > 20 µM | – | – | – |
| CC(C)C[C@H](NC(=O)OCC1c2ccccc2-c2ccccc21)C(=O)N1CCC[C@H]1C(=O)OCC(=O)CNC(=O)[C@H](CC1CCCCC1)N[C@@H](c1ccc(-c2ccc(S(C)(=O)=O)cc2)cc1)C(F)(F)F [GD28] | > 5 µM | > 5 µM | – | > 5 µM | – | – | – |
| O=C(CNC(=O)[C@@H]1CCCN1C(=O)CNC(=O)OCc1ccccc1)CSc1c(F)c(F)cc(F)c1F [GD17] | > 5 µM | 1.2 ± 0.11 µM | – | > 5 µM | – | – | – |
| CC(C)C[C@H](N[C@@H](c1ccc(-c2ccc(CCNC(=O)OC(C)(C)C)cc2)cc1)C(F)(F)F)C(=O)NCC(=O)COC(=O)[C@@H]1CCCN1C(=O)[C@H](CC(C)C)NC(=O)OCC1c2ccccc2-c2ccccc21 [GD34] | 5 ± 0.1 µM | 0.9 ± 0.06 µM | – | > 5 µM | – | – | – |
| Cc1cccc(C)c1C(=O)OCC(=O)[C@H](CCCCN)NC(=O)[C@@H]1CCCN1C(=O)CNC(=O)OCc1ccccc1 [GD13] | 4 ± 0.15 µM | 2.7 ± 0.35 µM | – | > 5 µM | – | 1.95 ± 0.35 µM | 3.6 ± 0.5 µM |
| CC(C)C[C@H](N[C@@H](c1ccc(-c2ccc(NC(=O)OC(C)(C)C)cc2)cc1)C(F)(F)F)C(=O)NCC(=O)COC(=O)[C@@H]1CCCN1C(=O)[C@H](CC(C)C)NC(=O)OCC1c2ccccc2-c2ccccc21 [GD26] | 6 ± 1.5 µM | 1.4 ± 0.2 µM | – | > 5 µM | – | – | – |
| Cc1cccc(C)c1C(=O)OCC(=O)CNC(=O)[C@@H]1CCCN1C(=O)CNC(=O)OCc1ccccc1 [GD16] | 2.8 ± 0.6 µM | 1.8 ± 0.25 µM | – | > 5 µM | – | – | – |
| CC(C)C[C@H](N[C@@H](c1ccc(-c2ccc(S(C)(=O)=O)cc2)cc1)C(F)(F)F)C(=O)NCC(=O)CSc1c(F)c(F)cc(F)c1F [GD9] | 5.1 ± 0.55 µM | 0.5 ± 0.05 µM | – | > 5 µM | – | – | – |
| NCCCC[C@H](NC(=O)[C@@H]1CCCN1C(=O)CNC(=O)OCc1ccccc1)C(=O)COc1c(F)c(F)cc(F)c1F [GD14] | 0.8 ± 0.25 µM | 0.3 ± 0.03 µM | – | > 5 µM | – | – | – |
